Measured values from US9006487B2, “Amine-containing lipids and uses thereof” (Massachusetts Institute of Technology, priority 2005, dated 2015).
Where “and” joins values, the source holds several entries; their conditions need not be identical. Equal entries are not always repeated.

How the values were obtained:
[1] = system: cos-7 cells; test: DNA transfection: luciferase expression relative to Lipofectamine 2000; type: cell-based; conditions: for luciferase expression (second part of table, values relative to LIPO2000): 300 ng of DNA per well
How it was run: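 Lipid/DNA complexes, 300 ng luciferase DNA per well at 2.5-25 w/w lipid:DNA, were formed in sodium acetate/Optimem and added to overnight-seeded cos-7 cells. Luciferase was measured by Bright-Glo luminescence after 48 hours and quantified against an enzyme standard curve. Values are expressed as % of Lipofectamine 2000 at 2.5 w/w.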

[2] = DNA delivery: raw luciferase expression (relative light units) of best-transfecting lipids; type: cell-based; conditions: 300 ng of DNA per well
Protocol: Raw values for luciferase expression (relative lights units) of best-transfecting lipids at lipid/DNA (w/w) ratios listed. 300 ng of DNA was added per well.

[3] = 1st column, no head printed (2.5 w/w by the raw values)
[4] = 2nd column, no head printed (5 w/w by the raw values)
[5] = 3rd column, no head printed (10 w/w by the raw values)
[6] = 4th column, no head printed (15 w/w by the raw values)

SMILES | Raw values for luciferase expression ([2]; lipid/DNA 2.5 w/w) [relative lights units] | Raw values for luciferase expression ([2]; lipid/DNA 10 w/w) [relative lights units] | Raw values for luciferase expression ([2]; lipid/DNA 15 w/w) [relative lights units] | luciferase expression (second part of table, values relative to LIPO2000) ([1]; lipid/DNA 2.5 w/w) | luciferase expression (second part of table, values relative to LIPO2000) ([1]; lipid/DNA 5 w/w) | luciferase expression (second part of table, values relative to LIPO2000) ([1]; lipid/DNA 10 w/w) | luciferase expression (second part of table, values relative to LIPO2000) ([1]; lipid/DNA 15 w/w) | luciferase expression, second set of columns (replicate set of data) [1, 3] | luciferase expression, second set of columns (replicate set of data) [1, 4] | luciferase expression, second set of columns (replicate set of data) [1, 5] | luciferase expression, second set of columns (replicate set of data) [1, 6] | Raw values for luciferase expression ([2]; lipid/DNA 5 w/w) | luciferase expression (second part of table, values relative to LIPO2000) ([1]; lipid/DNA 20 w/w) | luciferase expression (second part of table, values relative to LIPO2000) ([1]; lipid/DNA 25 w/w)
CCCCCCCCCCCCCCNC(=O)CCN(CC)CCN(CC)CCC(=O)NCCCCCCCCCCCCCC [NF61] |  |  |  | 63.9 | 67.7 | 7.0 | 2.9 | 5.2 | 38.9 | 8.6 | 1.1 | 3689556 relative lights units and 3053999 relative lights units |  | 
CCCCCCCCCCCCNC(=O)CCN(CCC(=O)NCCCCCCCCCCCC)C(CO)CO [ND25] | 7548491 |  |  | 226.4 | 125.8 | 19.5 | 0.5 |  |  |  |  | 5088120 relative lights units | 0.0 | 0.0
CCCCCCCCCCCCNC(=O)CCN(CCOCCO)CCC(=O)NCCCCCCCCCCCC [ND31] |  | 1154404 | 936815 | 7.7 | 5.6 | 47.6 | 44.9 |  |  |  |  |  | 7.6 | 19.7
CCCCCCCCCCCCNC(=O)CCN(CCC(=O)NCCCCCCCCCCCC)CC(C)O (stereo not shown) [ND22] | 721270 |  |  | 29.2 | 61.7 | 48.0 | 4.4 |  |  |  |  | 1083569 relative lights units | 0.4 | 0.2
CCCCCCCCCCCCNC(=O)CCN(CCCCCO)CCC(=O)NCCCCCCCCCCCC [ND32] | 17713202 |  |  | 531.2 | 67.9 | 1.1 | 0.1 |  |  |  |  | 2745231 relative lights units | 0.0 | 0.0
CCCCCCCCCCCCNC(=O)CCN(CCCCCCO)CCC(=O)NCCCCCCCCCCCC [ND36] | 4517622 | 2043526 | 658985 | 135.5 | 72.8 | 84.3 | 31.6 |  |  |  |  | 2945357 relative lights units | 0.8 | 0.0

Further lines, with some results ahead:

Raw values for luciferase expression ([2]; lipid/DNA 2.5 w/w) [relative lights units] | Raw values for luciferase expression ([2]; lipid/DNA 10 w/w) [relative lights units] | Raw values for luciferase expression ([2]; lipid/DNA 15 w/w) [relative lights units] | SMILES | luciferase expression (second part of table, values relative to LIPO2000) ([1]; lipid/DNA 2.5 w/w) | luciferase expression (second part of table, values relative to LIPO2000) ([1]; lipid/DNA 5 w/w) | luciferase expression (second part of table, values relative to LIPO2000) ([1]; lipid/DNA 10 w/w) | luciferase expression (second part of table, values relative to LIPO2000) ([1]; lipid/DNA 15 w/w) | luciferase expression, second set of columns (replicate set of data) [1, 3] | luciferase expression, second set of columns (replicate set of data) [1, 4] | luciferase expression, second set of columns (replicate set of data) [1, 5] | luciferase expression, second set of columns (replicate set of data) [1, 6] | Raw values for luciferase expression ([2]; lipid/DNA 5 w/w) | luciferase expression (second part of table, values relative to LIPO2000) ([1]; lipid/DNA 20 w/w) | luciferase expression (second part of table, values relative to LIPO2000) ([1]; lipid/DNA 25 w/w)
 | 1906488 | 918612 | CCCCCCCCCCCCCCNC(=O)CCN(C)CCN(CCC(=O)NCCCCCCCCCCCCCC)CCC(=O)NCCCCCCCCCCCCCC [NF95] | 131.6 | 141.8 | 100.5 | 33.9 | 6.0 | 9.4 | 4.7 | 12.1 | 2082965 relative lights units and 3775212 relative lights units |  | 
 | 2886271 | 772518 | CCCCCCCCCCCCCCNC(=O)CCN(CCO)CCN(CCO)CCC(=O)NCCCCCCCCCCCCCC [NF103] | 183.1 | 23.6 | 0.0 | 0.0 | 66.2 | 51.3 | 0.6 | 0.0 |  |  | 
4798383 |  |  | CCCCCCCCCCCCCCNC(=O)CCN(CCC(=O)NCCCCCCCCCCCCCC)CCN(CCO)CCO [NF86] | 56.7 | 53.3 | 4.5 | 2.3 |  |  |  |  | 4087285 relative lights units |  | 
 | 2401570 | 3739668 | CCCCCCCCCCCCCCNC(=O)CCN(C)CCN(C)CCC(=O)NCCCCCCCCCCCCCC [NF60] | 6.8 | 21.9 | 28.9 | 49.1 |  |  |  |  |  |  | 
3904993 |  |  | CCCCCCCCCCCCCCNC(=O)CCN(CCCN(CCO)CCO)CCC(=O)NCCCCCCCCCCCCCC [NF87] | 46.1 | 44.8 | 0.3 | 0.0 |  |  |  |  | 3436007 relative lights units |  | 
 | 1151621 | 108854 | CCCCCCCCCCCCCCNC(=O)CCN(CCO)CCN(CCC(=O)NCCCCCCCCCCCCCC)CCC(=O)NCCCCCCCCCCCCCC [NF109] | 205.2 | 46.2 | 1.7 | 0.0 | 74.5 | 22.5 | 3.9 | 1.6 |  |  | 
